Experimental findings from PubChem BioAssay AID1963850 (Molecular Pharmacology Branch, DTP, NCI, 2024) are described below.

Several values for one entry are separate records, joined by “and”; a condition that tells them apart may be missing. Equal entries are not always repeated.

The assay concerns 192522-019-R-J2-PDC complex tumor spheroid viability. Briefly: Anticancer human tumor 192522-019-R-J2-PDC patient-derived colon adenocarcinoma cell line growth inhibition [POLQ]. To be noted: for viability, T/C: stronger effect = lower value. On the procedure:
Multicellular complex tumor spheroid response to Polymerase (POL) inhibitors (novobiocin, ART-558, RP6685) in combination with a variety of drugs and investigational agents in selected tumor cell lines
The POL inhibitors (novobiocin, ART-558, and RP6685) were evaluated both individually and in combination with standard of care and investigational anticancer small molecules within a complex spheroid model of solid tumors. . Complex spheroids include a stromal component modeled by human endothelial cells (HUVEC) and fibroblasts modeled by human mesenchymal stem cells (MSCs). The concentration ranges selected for each drug and investigational agent were based upon clinically achievable concentrations if the clinical Cmax of the agent was known.
Compounds. The drugs and investigational agents: novobiocin (NSC847541), ART-558 (NSC835418), RP-6685 (NSC848927), peposertib (NSC802822), ceralasertib (NSC780249), elimusertib (NSC800525), camonsertib (NSC841442), AZD-1390 (NSC803789), olaparib (NSC753686), talazoparib (NSC767125), rucaparib (NSC756644), sotorasib (NSC818433), MRTX-1133 (NSC836407), SN-38 (NSC673596), topotecan (NSC609699), epotoside (NSC141540), doxorubicin (NSC123127), gemcitabine (NSC613327), 5-fluorouracil (NSC19893), paclitaxel (NSC125973), vemurafenib (NSC761431), MSA-2 (NSC828583), SN-011 (NSC837082), adavosertib (NSC754352), prexasertib (NSC758257), carboplatin (NSC241240) and oxaliplatin (NSC266046), were obtained from the National Cancer Institute (NCI) Developmental Therapeutics Program Chemical Repository (21). The FDA-approved anticancer drug set is available from the Developmental Therapeutics Program at https://dtp.cancer.gov/organization/dscb/obtaining/. […] The stock solutions were prepared in dimethyl sulfoxide (DMSO, Sigma-Aldrich, St. Louis, MO, cat. D2650), except for the platinum compounds which were prepared in saline (Quality Biological, Gaithersburg, MD, cat. 114-055-101), at 800-fold the tested concentration and stored at -70 degrees C prior to their use. All drugs and investigational agents were tested over a range starting from a high concentration at or near the clinical Cmax and decreasing in half-log increments. If the clinical Cmax for an agent had not been determined, the highest concentration tested was 10 microM, except for SN-38, which was tested at a high concentration of 1 microM.
Cell Culture. All cells were maintained in an incubator at 37 degrees C and 5% CO2 with 95% humidity. The PDC lines were cultured according to standard operating procedures established by the NCI PDMR (https://pdmr.cancer.gov). Table 3 of the manuscript, lists the cell lines along with the number of the three cell types plated to form the mct-spheroids and media for tumor cell growth. After thawing, all PDC lines, except 997537-175-T-J1-PDC and 415267-285-R-J2-PDC, were cultured in Matrigel-coated flasks prepared with a working solution of 1X Ham's F-12 nutrient mix, without supplementation (Thermo Fisher Scientific, cat. 11765054), 100 U/mL penicillin-streptomycin (Thermo Fisher Scientific, cat. 15140122), and 2.5% Matrigel (Corning Inc., Corning, NY, cat. 354248) for the first three passages. The two PDC lines 997537-175-T-J1-PDC and 415267-285-R-J2-PDC were cultured on uncoated flasks. The 857933-349-R-J2-PDC line was cultured in 6C/Colon 1B media containing advanced DMEM/F-12 (Thermo Fisher Scientific, cat. 12634028), 10 mM HEPES (Thermo Fisher Scientific, cat. 15630080), 1X GlutaMAX supplement (Thermo Fisher Scientific, cat. 35050061), 0.1 mg/mL primocin (InvivoGen, San Diego, CA, cat. ant-pm-2), 10% defined fetal bovine serum, heat inactivated (HyClone Laboratories Inc., Logan, UT, cat. SH30070.03HI), 50% L-WRN conditioned media (ATCC, cat. CRL-3276), 1.25 mM N-Acetyl-L-cysteine (Sigma-Aldrich, cat. A9165), 10 mM nicotinamide (Sigma-Aldrich, cat. N0636), 1X B-27 supplement (Thermo Fisher Scientific, cat. 17504044), 1X N-2 supplement (Thermo Fisher Scientific, cat. […]
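Note: spheroids exposed to drugs for seven days before reading.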
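Throughout, for viability, T/C: 100% = DMSO vehicle control viability in luminescence.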

In the case of `COc1cccc(OCCCN)c1-c1cc(Nc2cnc(C#N)cn2)n[nH]1`, the viability, T/C is 96.6% and 99.2% and 101% (compound 0.00316 µM); 33% and 47.4% and 44% (compound 0.0316 µM); 32.7% and 40.1% and 36.7% (compound 0.1 µM); 32.7% and 38.2% and 35.7% (compound 0.316 µM); 28.8% and 37.6% and 34.5% (compound 1 µM). For the same compound, the 50% inhibitory concentration (IC50) (curve of compound) is 0.0153 µM and 0.0294 µM and 0.0264 µM.
In the case of `COc1cc(C2c3cc4c(cc3C(OC3OC5COC(C)OC5C(O)C3O)C3COC(=O)C23)OCO4)cc(OC)c1O` (stereo not drawn) + Nc1ccc(C#CCN(C(=O)Cc2ncc(C(F)(F)F)cc2C(F)(F)F)c2ccc(F)cc2)nn1, the IC50 was above 10 µM (curve of first compound, second compound 0.0316 µM); above 10 µM (curve of first compound, second compound 0.1 µM); above 10 µM (curve of first compound, second compound 0.316 µM); above 10 µM (curve of first compound, second compound 1 µM); above 10 µM (curve of first compound, second compound 3.16 µM); above 10 µM (curve of first compound, second compound 10 µM). Also, the viability, T/C was determined as 105% (second compound 0.0316 µM, first compound 0.0316 µM); 98.2% (second compound 0.0316 µM, first compound 0.1 µM); 86.9% (second compound 0.0316 µM, first compound 0.316 µM); 83.2% (second compound 0.0316 µM, first compound 1 µM); 68.9% (second compound 0.0316 µM, first compound 3.16 µM); 77.8% (second compound 0.0316 µM, first compound 10 µM). The viability, T/C (second compound 0.1 µM, first compound 0.0316 µM) was found to be 110%; the viability, T/C (second compound 0.1 µM, first compound 0.1 µM) was 92.2%; the viability, T/C (second compound 0.1 µM, first compound 0.316 µM) is 97.5%; the viability, T/C (second compound 0.1 µM, first compound 1 µM) amounted to 93.4%; the viability, T/C (second compound 0.1 µM, first compound 3.16 µM) came out at 65.4%; the viability, T/C (second compound 0.1 µM, first compound 10 µM) amounted to 80.4%. For the same compound, the viability, T/C (second compound 0.316 µM, first compound 0.0316 µM) turned out to be 106%; the viability, T/C (second compound 0.316 µM, first compound 0.1 µM) turned out to be 100%; the viability, T/C (second compound 0.316 µM, first compound 0.316 µM) is 96.4%; the viability, T/C (second compound 0.316 µM, first compound 1 µM) is 87%; the viability, T/C (second compound 0.316 µM, first compound 3.16 µM) stood at 67%; the viability, T/C (second compound 0.316 µM, first compound 10 µM) was 80%. Also, the viability, T/C was 100% (second compound 1 µM, first compound 0.0316 µM); 91.9% (second compound 1 µM, first compound 0.1 µM); 98.2% (second compound 1 µM, first compound 0.316 µM); 85.1% (second compound 1 µM, first compound 1 µM); 73.9% (second compound 1 µM, first compound 3.16 µM); 75% (second compound 1 µM, first compound 10 µM). For the same compound, the viability, T/C reads like this: (second compound 3.16 µM, first compound 0.0316 µM) 109%; (second compound 3.16 µM, first compound 0.1 µM) 96.4%; (second compound 3.16 µM, first compound 0.316 µM) 95.9%; (second compound 3.16 µM, first compound 1 µM) 85.2%; (second compound 3.16 µM, first compound 3.16 µM) 72.7%; (second compound 3.16 µM, first compound 10 µM) 76.1%. Further, the viability, T/C worked out at 104% (second compound 10 µM, first compound 0.0316 µM); 101% (second compound 10 µM, first compound 0.1 µM); 96.9% (second compound 10 µM, first compound 0.316 µM); 78.6% (second compound 10 µM, first compound 1 µM); 79.7% (second compound 10 µM, first compound 3.16 µM); 72.2% (second compound 10 µM, first compound 10 µM).
